Results taken from patent publication US20240424111A1, “Degrader Compounds and Uses Thereof” (CALICO LIFE SCIENCES LLC, priority 2021, published 2024).

Experiments:
PTPN2 [1] = target: T1, PTPN2 (Homo sapiens, UniProt P17706); assay: HiBiT PTPN2 degradation in 293T.109 (HiBiT-PTPN2) cells, 24 hours; type: cell-based; settings: 293T.109 cells
T1 construct: expressed in transfected cells; host or cells: 293T.109 (HiBiT-PTPN2), derived from 293T WT (ATCC)
T1 sequence (P17706 1-415): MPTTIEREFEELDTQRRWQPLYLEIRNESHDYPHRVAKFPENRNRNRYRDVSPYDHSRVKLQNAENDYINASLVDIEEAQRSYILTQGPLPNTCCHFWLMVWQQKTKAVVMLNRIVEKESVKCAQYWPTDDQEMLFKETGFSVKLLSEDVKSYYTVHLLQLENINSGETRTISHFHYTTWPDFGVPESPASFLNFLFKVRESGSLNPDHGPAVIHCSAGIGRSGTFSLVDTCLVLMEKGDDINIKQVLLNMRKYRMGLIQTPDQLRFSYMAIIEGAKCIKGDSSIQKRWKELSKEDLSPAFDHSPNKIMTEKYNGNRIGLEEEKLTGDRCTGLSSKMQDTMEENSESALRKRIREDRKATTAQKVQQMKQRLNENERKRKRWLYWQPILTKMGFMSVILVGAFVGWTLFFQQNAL
Excerpt: Dulbecco's modified Eagle medium (DMEM) without phenol red and fetal bovine serum (FBS) were purchased from Gibco (Grand Island, NY, USA). Nano-Glo® HiBiT Lytic Assay System was purchased from Promega (Medison, WI, USA). 293T. 109 (HiBiT-PTPN2) cell line was generated by ectopically expressing PTPN2 with N-terminal HiBiT fusion tag in 293T WT cell line purchased from ATCC (Manassas, VA, USA). Cell culture flasks and 384-well microplates were acquired from VWR (Radnor, PA, USA).
PTPN2 Degradation Analysis
(§1) PTPN2 degradation was determined based on quantification of luminescent signal using Nano-Glo® HiBiT Lytic Assay kit. Test compounds were added to the 384-well plate from a top concentration of 10 μM with 11 points, half log titration in duplicates. 293T. 109 cells were added into 384-well plates at a cell density of 5000 cells per well. The plates were kept at 37° C. with 5% CO2 for 24 hours. The cells treated in the absence of the test compound were the negative control and the cells without Nano-Glo® HiBiT Lytic reagent were the positive control. After 24-hour incubation, Nano-Glo® HiBiT Lytic Assay reagents were added to the cells. Luminescence was acquired on EnVision™ Multilabel Reader (PerkinElmer, Santa Clara, CA, USA).

PTPN2 [2] = target: T2, PTPN2 (Mus musculus, UniProt Q06180); assay: HiBiT PTPN2 degradation in B16F10.4 cells, 24 hours; type: cell-based
T2 construct: HiBiT; host or cells: B16F10.4
T2 sequence (Q06180 1-406): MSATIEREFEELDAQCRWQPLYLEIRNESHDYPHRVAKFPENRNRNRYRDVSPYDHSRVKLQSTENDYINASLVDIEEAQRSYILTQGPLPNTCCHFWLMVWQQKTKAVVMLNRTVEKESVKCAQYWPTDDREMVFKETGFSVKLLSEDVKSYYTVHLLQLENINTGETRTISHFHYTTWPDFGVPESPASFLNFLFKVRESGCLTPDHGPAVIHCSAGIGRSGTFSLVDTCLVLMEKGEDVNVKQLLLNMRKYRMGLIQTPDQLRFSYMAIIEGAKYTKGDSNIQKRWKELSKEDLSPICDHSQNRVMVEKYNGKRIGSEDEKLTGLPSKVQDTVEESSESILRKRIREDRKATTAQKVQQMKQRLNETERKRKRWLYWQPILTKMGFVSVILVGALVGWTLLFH
Protocol: as §1

| Compound | DC50 (PTPN2 [1]) | DC50 (PTPN2 [2]) |
| --- | --- | --- |
| CCn1c(=O)n(C2CCC(=O)NC2=O)c2ccc(C3CCN([C@H](CO)C(=O)Nc4ccc5c(F)c(N6CC(=O)NS6(=O)=O)c(O)cc5c4)CC3)cc21 (some centres unmarked) [Degrader 63] | < 50 nM | < 50 nM |
| Cn1c(=O)n(C2CCC(=O)NC2=O)c2ccc(-c3ccn(CC(=O)Nc4ccc5c(F)c(N6CC(=O)NS6(=O)=O)c(O)cc5c4)n3)cc21 (centres unmarked) [Degrader 149] | 150 to 500 nM | 150 to 500 nM |
| Cn1c(=O)n(C2CCC(=O)NC2=O)c2ccc(N3CCC(O)(CC(=O)N4CC(Oc5ccc6cc(O)c(N7CC(=O)NS7(=O)=O)c(F)c6c5)C4)CC3)cc21 (centres unmarked) [Degrader 67] | 150 to 500 nM | 150 to 500 nM |
| Cn1c(=O)n(C2CCC(=O)NC2=O)c2ccc(N3CCN(CC(=O)Nc4ccc5c(F)c(N6CC(=O)NS6(=O)=O)c(O)cc5c4)C(=O)C3)cc21 (centres unmarked) [Degrader 139] | 150 to 500 nM | ≥ 500 nM |
| Cn1c(=O)n(C2CCC(=O)NC2=O)c2ccc(-c3ccc(CC(=O)Nc4ccc5c(F)c(N6CC(=O)NS6(=O)=O)c(O)cc5c4)c(F)c3)cc21 (centres unmarked) [Degrader 33] | 50 to 150 nM | 50 to 150 nM |
| Cn1c(=O)n(C2CCC(=O)NC2=O)c2ccc(-c3cccc(CCC(=O)Nc4ccc5c(F)c(N6CC(=O)NS6(=O)=O)c(O)cc5c4)c3)cc21 (centres unmarked) [Degrader 80] | < 50 nM | 150 to 500 nM |
| C[C@H]1CN(c2ccc3c(c2)n(C)c(=O)n3C2CCC(=O)NC2=O)CCN1CC(=O)Nc1ccc2c(F)c(N3CC(=O)NS3(=O)=O)c(O)cc2c1 (some centres unmarked) [Degrader 90] | 150 to 500 nM | 50 to 150 nM |
| Cn1c(=O)n(C2CCC(=O)NC2=O)c2ccc(-c3ccc(CC(=O)Nc4ccc5c(F)c(N6CC(=O)NS6(=O)=O)c(O)cc5c4)cc3)nc21 (centres unmarked) [Degrader 60] | 150 to 500 nM | 50 to 150 nM |
| Cn1c(=O)n(C2CCC(=O)NC2=O)c2ccc(N3CCC(O)(CC(=O)N4CC[C@H](c5ccc6cc(O)c(N7CC(=O)NS7(=O)=O)c(F)c6c5)C4)CC3)cc21 (some centres unmarked) [Degrader 115] | 150 to 500 nM | 150 to 500 nM |
| Cc1cc(-c2ccc3c(c2)n(C)c(=O)n3C2CCC(=O)NC2=O)ccc1CC(=O)Nc1ccc2c(F)c(N3CC(=O)NS3(=O)=O)c(O)cc2c1 (centres unmarked) [Degrader 79] | 50 to 150 nM | 50 to 150 nM |
| COCCn1c(=O)n(C2CCC(=O)NC2=O)c2ccc(-c3ccc(CC(=O)Nc4ccc5c(F)c(N6CC(=O)NS6(=O)=O)c(O)cc5c4)cc3)cc21 (centres unmarked) [Degrader 45] | 150 to 500 nM | 150 to 500 nM |
| Cn1c(=O)n(C2CCC(=O)NC2=O)c2ccc(C3CCN(CC4CC4C(=O)N4CC[C@@H](c5ccc6cc(O)c(N7CC(=O)NS7(=O)=O)c(F)c6c5)C4)CC3)cc21 (some centres unmarked) [Degrader 18] | 50 to 150 nM | 150 to 500 nM |
| Cn1c(=O)n(C2CCC(=O)NC2=O)c2ccc(N3CCC(CC(=O)Nc4ccc5c(F)c(N6CC(=O)NS6(=O)=O)c(O)cc5c4)CC3)cc21 (centres unmarked) [Degrader 19] | < 50 nM | 50 to 150 nM |
| Cn1c(=O)n(C2CCC(=O)NC2=O)c2ccc(Oc3ccc(CC(=O)Nc4ccc5c(F)c(N6CC(=O)NS6(=O)=O)c(O)cc5c4)cc3)cc21 (centres unmarked) [Degrader 76] | 50 to 150 nM | 50 to 150 nM |
| Cn1c(=O)n(C2CCC(=O)NC2=O)c2ccc(N3CCC(CC(=O)Nc4ccc5c(F)c(N6CC(=O)NS6(=O)=O)c(O)cc5c4)CC3)cc21 (centres unmarked) [Degrader 147] | 150 to 500 nM | 150 to 500 nM |
| Cn1c(=O)n(C2CCC(=O)NC2=O)c2ccc(C3CCN(CC(=O)N4CC[C@H](Oc5ccc6cc(O)c(N7CC(=O)NS7(=O)=O)c(F)c6c5)C4)CC3(F)F)cc21 (some centres unmarked) [Degrader 116] | ≥ 500 nM | ≥ 500 nM |
| O=C1CCC(N2C(=O)c3cccc4c(-c5ccc(CC(=O)Nc6ccc7c(F)c(N8CC(=O)NS8(=O)=O)c(O)cc7c6)cc5)ccc2c34)C(=O)N1 (centres unmarked) [Degrader 155] | 150 to 500 nM | 50 to 150 nM |

| Compound | DC50 (PTPN2 [1]) | DC50 (PTPN2 [2]) |
| --- | --- | --- |
| Cn1c(=O)n(C2CCC(=O)NC2=O)c2ccc([C@H]3CCN(CC(=O)Nc4ccc5c(F)c(N6CC(=O)NS6(=O)=O)c(O)cc5c4)C3)cc21 (single isomer, unassigned) [Degrader 123] | 50 to 150 nM | 150 to 500 nM |
| Cn1c(=O)n(C2CCC(=O)NC2=O)c2cc(F)c(N3CCC(CCNC(=O)Nc4ccc5c(F)c(N6CC(=O)NS6(=O)=O)c(O)cc5c4)CC3)cc21 (centres unmarked) [Degrader 58] | < 50 nM | 150 to 500 nM |
| Cn1c(=O)n(C2CCC(=O)NC2=O)c2ccc(Nc3cccc(CC(=O)Nc4ccc5c(F)c(N6CC(=O)NS6(=O)=O)c(O)cc5c4)c3)cc21 (centres unmarked) [Degrader 72] | < 50 nM | 50 to 150 nM |
| Cn1c(=O)n(C2CCC(=O)NC2=O)c2cnc(-c3ccc(CC(=O)Nc4ccc5c(F)c(N6CC(=O)NS6(=O)=O)c(O)cc5c4)cc3)cc21 (centres unmarked) [Degrader 122] | ≥ 500 nM | 150 to 500 nM |
| C[C@H]1CN(c2ccc3c(c2)n(C)c(=O)n3C2CCC(=O)NC2=O)CC[C@H]1CC(=O)Nc1ccc2c(F)c(N3CC(=O)NS3(=O)=O)c(O)cc2c1 (some centres unmarked) [Degrader 126] | 50 to 150 nM | 50 to 150 nM |
| CC(C)n1nc(C2CCC(=O)NC2=O)c2ccc(C3CCN(CC(=O)N4CC(Oc5ccc6cc(O)c(N7CC(=O)NS7(=O)=O)c(F)c6c5)C4)CC3(F)F)cc21 (centres unmarked) [Degrader 13] | 50 to 150 nM | 50 to 150 nM |
| CCn1nc(C2CCC(=O)NC2=O)c2ccc(C3CCN(CC(=O)N4CC(Oc5ccc6cc(O)c(N7CC(=O)NS7(=O)=O)c(F)c6c5)C4)CC3(F)F)cc21 (centres unmarked) [Degrader 12] | < 50 nM | 50 to 150 nM |
| Cn1c(=O)n(C2CCC(=O)NC2=O)c2ccc([C@H]3CCN(CC(=O)Nc4ccc5c(F)c(N6CC(=O)NS6(=O)=O)c(O)cc5c4)C[C@@H]3O)cc21 (some centres unmarked) [Degrader 112] | < 50 nM | 50 to 150 nM |
| Cc1nn(C2CCC(=O)NC2=O)c2ccc(N3CCC(CC(=O)Nc4ccc5c(F)c(N6CC(=O)NS6(=O)=O)c(O)cc5c4)CC3)cc12 (centres unmarked) [Degrader 101] | ≥ 500 nM | ≥ 500 nM |
| Cc1nn(C2CCC(=O)NC2=O)c2ccc(C3CCN(CC(=O)Nc4ccc5c(F)c(N6CC(=O)NS6(=O)=O)c(O)cc5c4)CC3)cc12 (centres unmarked) [Degrader 100] | < 50 nM | 150 to 500 nM |
| C[C@H]1CN(CC(=O)Nc2ccc3c(F)c(N4CC(=O)NS4(=O)=O)c(O)cc3c2)CCN1c1cc2c(cc1F)n(C1CCC(=O)NC1=O)c(=O)n2C (some centres unmarked) [Degrader 65] | 150 to 500 nM | ≥ 500 nM |
| CCn1c(=O)n(C2CCC(=O)NC2=O)c2ccc([C@@H]3CCN(CC(=O)Nc4ccc5c(F)c(N6CC(=O)NS6(=O)=O)c(O)cc5c4)C[C@H]3F)cc21 (some centres unmarked) [Degrader 131] | 150 to 500 nM | ≥ 500 nM |
| Cn1c(=O)n(C2CCC(=O)NC2=O)c2ccc(N3CCc4cc(CC(=O)Nc5ccc6c(F)c(N7CC(=O)NS7(=O)=O)c(O)cc6c5)ccc43)cc21 (centres unmarked) [Degrader 119] | 150 to 500 nM | 50 to 150 nM |
| Cn1c(=O)n(C2CCC(=O)NC2=O)c2ccc(C3=CCC(CC(=O)Nc4ccc5c(F)c(N6CC(=O)NS6(=O)=O)c(O)cc5c4)CC3)cc21 (centres unmarked) [Degrader 157] | 50 to 150 nM | 50 to 150 nM |
| Cn1c(=O)n(C2CCC(=O)NC2=O)c2ccc(N3CC4(CCN(CC(=O)Nc5ccc6c(F)c(N7CC(=O)NS7(=O)=O)c(O)cc6c5)CC4)C3)cc21 (centres unmarked) [Degrader 92] | 150 to 500 nM | ≥ 500 nM |
| Cn1c(=O)n(C2CCC(=O)NC2=O)c2ccc(N3CCCC(CC(=O)Nc4ccc5c(F)c(N6CC(=O)NS6(=O)=O)c(O)cc5c4)CC3)cc21 (centres unmarked) [Degrader 97] | 50 to 150 nM | 150 to 500 nM |
| Cn1c(=O)n(C2CCC(=O)NC2=O)c2ccc(N3CCC(C(C)(C)C(=O)Nc4ccc5c(F)c(N6CC(=O)NS6(=O)=O)c(O)cc5c4)CC3)cc21 (centres unmarked) [Degrader 118] | ≥ 500 nM | 150 to 500 nM |
